Assay results: ChEMBL document CHEMBL4138123, “Design, synthesis and biological evaluation of novel pyrazolochalcones as potential modulators of PI3K/Akt/mTOR pathway and inducers of apoptosis in breast cancer cells” (Eur J Med Chem, 2017)

Experiments:
Assay type in all cases: functional
HT-29 [1] = assay: Cytotoxicity against human HT-29 cells assessed as growth inhibition after 48 hrs by sulforhodamine B assay; details: HT-29, 48 h
NCI/ADR-RES = assay: Cytotoxicity against human NCI/ADR-RES cells assessed as cell growth at 10 uM after 48 hrs by sulforhodamine B assay relative to control; details: read-out: Activity
MDA-MB-468 [2] = assay: Cytotoxicity against human MDA-MB-468 cells assessed as cell growth at 100 uM after 48 hrs by sulforhodamine B assay relative to control; details: MDA-MB-468, 48 h, read-out: Activity
SF-268 [3] = assay: Cytotoxicity against human SF268 cells assessed as cell growth at 1 uM after 48 hrs by sulforhodamine B assay relative to control; details: SF-268, 48 h, read-out: Activity
K562 = assay: Cytotoxicity against human K562 cells assessed as growth inhibition after 48 hrs by sulforhodamine B assay; details: K562, 48 h
HOP-62 [4] = assay: Cytotoxicity against human HOP62 cells assessed as cell growth at 100 uM after 48 hrs by sulforhodamine B assay relative to control; details: HOP-62, 48 h, read-out: Activity
Hs-578T = assay: Cytotoxicity against human Hs 578T cells assessed as cell growth at 0.1 uM after 48 hrs by sulforhodamine B assay relative to control; details: read-out: Activity
M14 = assay: Cytotoxicity against human M14 cells assessed as cell growth at 1 uM after 48 hrs by sulforhodamine B assay relative to control; details: M14, 48 h, read-out: Activity
MDA-MB-231 [5] = assay: Cytotoxicity against human MDA-MB-231 cells assessed as growth inhibition after 48 hrs by sulforhodamine B assay; details: MDA-MB-231, 48 h
OVCAR-8 = assay: Cytotoxicity against human OVCAR8 cells assessed as cell growth at 0.1 uM after 48 hrs by sulforhodamine B assay relative to control; details: OVCAR-8, 48 h, read-out: Activity
HT-29 [6] = assay: Cytotoxicity against human HT-29 cells assessed as cell growth at 0.01 uM after 48 hrs by sulforhodamine B assay relative to control; details: HT-29, 48 h, read-out: Activity
MDA-MB-468 [7] = assay: Cytotoxicity against human MDA-MB-468 cells assessed as cell growth at 0.01 uM after 48 hrs by sulforhodamine B assay relative to control; details: MDA-MB-468, 48 h, read-out: Activity
HCC 2998 = assay: Cytotoxicity against human HCC2998 cells assessed as cell growth at 100 uM after 48 hrs by sulforhodamine B assay relative to control; details: HCC 2998, 48 h, read-out: Activity
SK-MEL-5 = assay: Cytotoxicity against human SK-MEL-5 cells assessed as growth inhibition after 48 hrs by sulforhodamine B assay; details: SK-MEL-5, 48 h
UACC-62 [8] = assay: Cytotoxicity against human UACC62 cells assessed as cell growth at 1 uM after 48 hrs by sulforhodamine B assay relative to control; details: UACC-62, 48 h, read-out: Activity
MDA-MB-435 = assay: Cytotoxicity against human MDA-MB-435 cells assessed as cell growth at 100 uM after 48 hrs by sulforhodamine B assay relative to control; details: MDA-MB-435, 48 h, read-out: Activity
SF-539 [9] = assay: Cytotoxicity against human SF539 cells assessed as cell growth at 1 uM after 48 hrs by sulforhodamine B assay relative to control; details: SF-539, 48 h, read-out: Activity
Malme-3M = assay: Cytotoxicity against human MALME-3M cells assessed as cell growth at 1 uM after 48 hrs by sulforhodamine B assay relative to control; details: read-out: Activity
MDA-MB-231 [10] = assay: Cytotoxicity against human MDA-MB-231 cells assessed as cell growth at 10 uM after 48 hrs by sulforhodamine B assay relative to control; details: MDA-MB-231, 48 h, read-out: Activity
SF-268 [11] = assay: Cytotoxicity against human SF268 cells assessed as cell growth at 10 uM after 48 hrs by sulforhodamine B assay relative to control; details: SF-268, 48 h, read-out: Activity
NCI-H522 = assay: Cytotoxicity against human NCI-H522 cells assessed as cell growth at 1 uM after 48 hrs by sulforhodamine B assay relative to control; details: NCI-H522, 48 h, read-out: Activity
HOP-62 [12] = assay: Cytotoxicity against human HOP62 cells assessed as cell growth at 0.1 uM after 48 hrs by sulforhodamine B assay relative to control; details: HOP-62, 48 h, read-out: Activity
HL-60(TB) = assay: Cytotoxicity against human HL-60(TB) cells assessed as cell growth at 1 uM after 48 hrs by sulforhodamine B assay relative to control; details: HL-60, 48 h, read-out: Activity
UACC-62 [13] = assay: Cytotoxicity against human UACC62 cells assessed as cell growth at 10 uM after 48 hrs by sulforhodamine B assay relative to control; details: UACC-62, 48 h, read-out: Activity
SW-620 = assay: Cytotoxicity against human SW620 cells assessed as cell growth at 1 uM after 48 hrs by sulforhodamine B assay relative to control; details: SW-620, 48 h, read-out: Activity
OVCAR-4 = assay: Cytotoxicity against human OVCAR4 cells assessed as cell growth at 10 uM after 48 hrs by sulforhodamine B assay relative to control; details: OVCAR-4, 48 h, read-out: Activity
DU-145 = assay: Cytotoxicity against human DU145 cells assessed as cell growth at 0.1 uM after 48 hrs by sulforhodamine B assay relative to control; details: DU-145, 48 h, read-out: Activity
MDA-MB-231 [14] = assay: Cytotoxicity against human MDA-MB-231 cells assessed as cell growth at 0.1 uM after 48 hrs by sulforhodamine B assay relative to control; details: MDA-MB-231, 48 h, read-out: Activity
A549 = assay: Cytotoxicity against human A549/ATCC cells assessed as cell growth at 10 uM after 48 hrs by sulforhodamine B assay relative to control; details: A549, 48 h, read-out: Activity
SF-268 [15] = assay: Cytotoxicity against human SF268 cells assessed as cell growth at 100 uM after 48 hrs by sulforhodamine B assay relative to control; details: SF-268, 48 h, read-out: Activity
RPMI-8226 = assay: Cytotoxicity against human RPMI8226 cells assessed as cell growth at 0.1 uM after 48 hrs by sulforhodamine B assay relative to control; details: RPMI-8226, 48 h, read-out: Activity
SK-MEL-28 = assay: Cytotoxicity against human SK-MEL-28 cells assessed as cell growth at 0.01 uM after 48 hrs by sulforhodamine B assay relative to control; details: SK-MEL-28, 48 h, read-out: Activity
SF-539 [16] = assay: Cytotoxicity against human SF539 cells assessed as cell growth at 10 uM after 48 hrs by sulforhodamine B assay relative to control; details: SF-539, 48 h, read-out: Activity
RXF 393 = assay: Cytotoxicity against human RXF393 cells assessed as cell growth at 0.01 uM after 48 hrs by sulforhodamine B assay relative to control; details: RXF 393, 48 h, read-out: Activity
MDA-MB-231 [17] = assay: Cytotoxicity against human MDA-MB-231 cells assessed as cell growth at 100 uM after 48 hrs by sulforhodamine B assay relative to control; details: MDA-MB-231, 48 h, read-out: Activity
ACHN = assay: Cytotoxicity against human ACHN cells assessed as cell growth at 0.01 uM after 48 hrs by sulforhodamine B assay relative to control; details: read-out: Activity

## COc1ccc(C(=O)/C=C/c2cc(-c3cc(OC)c(OC)c(OC)c3)n[nH]2)cc1
HT-29 [1]
  TGI: 4.19 µM
NCI/ADR-RES
  growth at 10 µM: -1%
MDA-MB-468 [2]
  growth at 100 µM: -78%
SF-268 [3]
  growth at 1 µM: 87%
K562
  LC50 (concentration killing 50% of cells): > 100 µM
HOP-62 [4]
  growth at 100 µM: -79%
Hs-578T
  growth at 0.1 µM: 100%
M14
  growth at 1 µM: 99%
MDA-MB-231 [5]
  LC50: > 100 µM
OVCAR-8
  growth at 0.1 µM: 98%
HT-29 [6]
  growth at 0.01 µM: 102%
MDA-MB-468 [7]
  growth at 0.01 µM: 89%
HCC 2998
  growth at 100 µM: -82%
SK-MEL-5
  LC50 (concentration killing 50% of cells): 6.1 µM
  TGI: 3.24 µM
UACC-62 [8]
  growth at 1 µM: 95%
MDA-MB-435
  growth at 100 µM: -44%
SF-539 [9]
  growth at 1 µM: 87%
Malme-3M
  growth at 1 µM: 93%
MDA-MB-231 [10]
  growth at 10 µM: -33%
SF-268 [11]
  growth at 10 µM: -35%
NCI-H522
  growth at 1 µM: 75%
HOP-62 [12]
  growth at 0.1 µM: 102%
HL-60(TB)
  growth at 1 µM: 99%
UACC-62 [13]
  growth at 10 µM: -74%
SW-620
  growth at 1 µM: 82%
OVCAR-4
  growth at 10 µM: -7%
DU-145
  growth at 0.1 µM: 101%
MDA-MB-231 [14]
  growth at 0.1 µM: 94%
A549
  growth at 10 µM: -15%
SF-268 [15]
  growth at 100 µM: -37%
RPMI-8226
  growth at 0.1 µM: 90%
SK-MEL-28
  growth at 0.01 µM: 105%
SF-539 [16]
  growth at 10 µM: -92%
RXF 393
  growth at 0.01 µM: 93%
MDA-MB-231 [17]
  growth at 100 µM: 19%
ACHN
  growth at 0.01 µM: 102%

## COc1cc(-c2cc(/C=C/C(=O)c3ccc(N)cc3)[nH]n2)cc(OC)c1OC
HT-29 [1]
  GI50: 1.85 µM
  LC50: > 100 µM
  TGI: 4.82 µM
NCI/ADR-RES
  growth at 10 µM: 15%
MDA-MB-468 [2]
  growth at 100 µM: -65%
SF-268 [3]
  growth at 1 µM: 81%
K562
  GI50: 0.72 µM
  LC50 (concentration killing 50% of cells): > 100 µM
  TGI: 23.6 µM
HOP-62 [4]
  growth at 100 µM: -98%
Hs-578T
  growth at 0.1 µM: 88%
M14
  growth at 1 µM: 90%
MDA-MB-231 [5]
  GI50: 2.06 µM
  LC50: 47.5 µM
  TGI: 12.2 µM
OVCAR-8
  growth at 0.1 µM: 98%
HT-29 [6]
  growth at 0.01 µM: 98%
MDA-MB-468 [7]
  growth at 0.01 µM: 90%
HCC 2998
  growth at 100 µM: -91%
SK-MEL-5
  GI50: 1.65 µM
  LC50 (concentration killing 50% of cells): 5.69 µM
  TGI: 3.06 µM
UACC-62 [8]
  growth at 1 µM: 86%
MDA-MB-435
  growth at 100 µM: -85%
SF-539 [9]
  growth at 1 µM: 69%
Malme-3M
  growth at 1 µM: 93%
MDA-MB-231 [10]
  growth at 10 µM: 7%
SF-268 [11]
  growth at 10 µM: -55%
NCI-H522
  growth at 1 µM: 77%
HOP-62 [12]
  growth at 0.1 µM: 92%
HL-60(TB)
  growth at 1 µM: 66%
UACC-62 [13]
  growth at 10 µM: -69%
SW-620
  growth at 1 µM: 82%
OVCAR-4
  growth at 10 µM: -22%
DU-145
  growth at 0.1 µM: 104%
MDA-MB-231 [14]
  growth at 0.1 µM: 91%
A549
  growth at 10 µM: -15%
SF-268 [15]
  growth at 100 µM: -80%
RPMI-8226
  growth at 0.1 µM: 97%
SK-MEL-28
  growth at 0.01 µM: 89%
SF-539 [16]
  growth at 10 µM: -93%
RXF 393
  growth at 0.01 µM: 91%
MDA-MB-231 [17]
  growth at 100 µM: -77%
ACHN
  growth at 0.01 µM: 95%
